According to BigSolDB 2.1:

Clc1ccccc1C(c1ccccc1)(c1ccccc1)n1ccnc1
Conditions | solubility (mole fraction)
in ethyl acetate, 283.11 K | 0.00714
in ethyl acetate, 288.17 K | 0.00838
in ethyl acetate, 293.24 K | 0.01
in ethyl acetate, 298.15 K | 0.0119
in ethyl acetate, 303.14 K | 0.0142
in ethyl acetate, 308.18 K | 0.0168
in ethyl acetate, 313.12 K | 0.0198
in ethyl acetate, 318.16 K | 0.0233
in ethyl acetate, 323.19 K | 0.0275
in isobutanol, 283.09 K | 0.0157
in isobutanol, 288.15 K | 0.0202
in isobutanol, 293.11 K | 0.0251
in isobutanol, 298.17 K | 0.0311
in isobutanol, 303.16 K | 0.0385
in isobutanol, 308.21 K | 0.0477
in isobutanol, 313.15 K | 0.0589
in isobutanol, 318.14 K | 0.0722
in isobutanol, 323.18 K | 0.0873
in isopentanol, 283.13 K | 0.0157
in isopentanol, 288.18 K | 0.0193
in isopentanol, 293.14 K | 0.0239
in isopentanol, 298.16 K | 0.0296
in isopentanol, 303.13 K | 0.0366
in isopentanol, 308.18 K | 0.045
in isopentanol, 313.12 K | 0.0548
in isopentanol, 318.15 K | 0.0668
in isopentanol, 323.19 K | 0.081
in isopropanol, 283.1 K | 0.00571
in isopropanol, 288.15 K | 0.00723
in isopropanol, 293.13 K | 0.00916
in isopropanol, 298.16 K | 0.0115
in isopropanol, 303.12 K | 0.0145
in isopropanol, 308.15 K | 0.0185
in isopropanol, 313.19 K | 0.0235
in isopropanol, 318.16 K | 0.03
in isopropanol, 323.15 K | 0.0384
in isopropyl acetate, 283.1 K | 0.00518
in isopropyl acetate, 288.16 K | 0.00615
in isopropyl acetate, 293.2 K | 0.0073
in isopropyl acetate, 298.19 K | 0.00868
in isopropyl acetate, 303.15 K | 0.0102
in isopropyl acetate, 308.12 K | 0.0121
in isopropyl acetate, 313.15 K | 0.0144
in isopropyl acetate, 318.19 K | 0.0171
in isopropyl acetate, 323.17 K | 0.0203
in methyl acetate, 283.15 K | 0.00661
in methyl acetate, 288.17 K | 0.00792
in methyl acetate, 293.1 K | 0.00953
in methyl acetate, 298.21 K | 0.0114
in methyl acetate, 303.15 K | 0.0137
in methyl acetate, 308.16 K | 0.0164
in methyl acetate, 313.12 K | 0.0196
in methyl acetate, 318.14 K | 0.0235
in methyl acetate, 323.18 K | 0.0281
in methyl propionate, 283.13 K | 0.00984
in methyl propionate, 288.17 K | 0.0117
in methyl propionate, 293.21 K | 0.0138
in methyl propionate, 298.15 K | 0.0163
in methyl propionate, 303.14 K | 0.0192
in methyl propionate, 308.17 K | 0.0227
in methyl propionate, 313.08 K | 0.0268
in methyl propionate, 318.19 K | 0.0316
in methyl propionate, 323.15 K | 0.0373
in n-butanol, 283.16 K | 0.0151
in n-butanol, 288.11 K | 0.0188
in n-butanol, 293.15 K | 0.0235
in n-butanol, 298.2 K | 0.0289
in n-butanol, 303.14 K | 0.0356
in n-butanol, 308.18 K | 0.0439
in n-butanol, 313.15 K | 0.0538
in n-butanol, 318.17 K | 0.0659
in n-butanol, 323.16 K | 0.0798
in n-butyl acetate, 283.16 K | 0.00743
in n-butyl acetate, 288.19 K | 0.00886
in n-butyl acetate, 293.14 K | 0.0104
in n-butyl acetate, 298.16 K | 0.0124
in n-butyl acetate, 303.11 K | 0.0148
in n-butyl acetate, 308.09 K | 0.0176
in n-butyl acetate, 313.25 K | 0.0211
in n-butyl acetate, 318.15 K | 0.0251
in n-butyl acetate, 323.13 K | 0.0299
in n-heptanol, 283.17 K | 0.0108
in n-heptanol, 288.14 K | 0.0151
in n-heptanol, 293.18 K | 0.0198
in n-heptanol, 298.16 K | 0.0251
in n-heptanol, 303.1 K | 0.0316
in n-heptanol, 308.15 K | 0.039
in n-heptanol, 313.19 K | 0.0474
in n-heptanol, 318.08 K | 0.0578
in n-heptanol, 323.16 K | 0.0695
in n-hexanol, 283.08 K | 0.0145
in n-hexanol, 288.13 K | 0.0185
in n-hexanol, 293.16 K | 0.0231
in n-hexanol, 298.15 K | 0.0287
in n-hexanol, 303.19 K | 0.0356
in n-hexanol, 308.14 K | 0.0432
in n-hexanol, 313.1 K | 0.053
in n-hexanol, 318.21 K | 0.064
in n-hexanol, 323.17 K | 0.0769
in n-octanol, 283.06 K | 0.0118
in n-octanol, 288.15 K | 0.0159
in n-octanol, 293.13 K | 0.0203
in n-octanol, 298.19 K | 0.0247
in n-octanol, 303.11 K | 0.0301
in n-octanol, 308.22 K | 0.0366
in n-octanol, 313.18 K | 0.0453
in n-octanol, 318.09 K | 0.0553
in n-octanol, 323.17 K | 0.0661
in n-pentanol, 283.19 K | 0.0169
in n-pentanol, 288.15 K | 0.0213
in n-pentanol, 293.13 K | 0.0269
in n-pentanol, 298.1 K | 0.0325
in n-pentanol, 303.12 K | 0.04
in n-pentanol, 308.15 K | 0.0486
in n-pentanol, 313.07 K | 0.0587
in n-pentanol, 318.14 K | 0.0707
in n-pentanol, 323.17 K | 0.085
in n-propanol, 283.15 K | 0.0144
in n-propanol, 288.12 K | 0.0172
in n-propanol, 293.14 K | 0.0213
in n-propanol, 298.18 K | 0.0263
in n-propanol, 303.16 K | 0.0327
in n-propanol, 308.15 K | 0.0405
in n-propanol, 313.11 K | 0.05
in n-propanol, 318.17 K | 0.0618
in n-propanol, 323.18 K | 0.0761
in n-propyl acetate, 283.15 K | 0.008
in n-propyl acetate, 288.14 K | 0.0095
in n-propyl acetate, 293.19 K | 0.0112
in n-propyl acetate, 298.17 K | 0.0132
in n-propyl acetate, 303.16 K | 0.0156
in n-propyl acetate, 308.12 K | 0.0185
in n-propyl acetate, 313.21 K | 0.0217
in n-propyl acetate, 318.15 K | 0.0257
in n-propyl acetate, 323.13 K | 0.0303
in sec-butanol, 283.15 K | 0.0101
in sec-butanol, 288.16 K | 0.013
in sec-butanol, 293.21 K | 0.0165
in sec-butanol, 298.18 K | 0.021
in sec-butanol, 303.13 K | 0.0267
in sec-butanol, 308.15 K | 0.0338
in sec-butanol, 313.19 K | 0.0425
in sec-butanol, 318.11 K | 0.0532
in sec-butanol, 323.14 K | 0.0657
